Reference: patent US11186607B1, “Pleuromutilin ursodeoxycholic acid ester with antibacterial activity and a method of preparing the same” (Xi'an Taikomed Pharmaceutical Technology Co., Ltd., priority 2020, dated 2021)

Columns and labels:
Format in all cases: cell-based, Staphylococcus aureus
MRSA-171 = test: paper diffusion drug sensitivity test, MRSA-171; settings: for Zone of inhibition: MRSA-171, drug sensitive paper 30 μg/tablet, LB plate, 37° C., 24 h; for inhibitory effect (in words): multi-drug resistant Staphylococcus aureus 171, summary of FIGS. 1-3 and Table 1
Method: [Worded in the source for another organism; this organism is reported under the same test.] (§1) The antimicrobial efficacy was determined by a paper diffusion drug sensitivity test.
(§2) Experimental strains: multi-resistant Staphylococcus aureus 206, multi-resistant Staphylococcus aureus 575, multi-resistant Staphylococcus aureus 596. The experimental strains were provided by Huashan Hospital Affiliated to Fudan University (Institute of Antibiotic of Fudan University).
(§3) Drug sensitive paper: The drug sensitive paper was a special drug sensitive paper with a diameter of 6.35 mm and a water absorption of 0.02 mL. The control drug was vancomycin (30 μg/tablet); the test drugs were pleuromulin (30 μg/tablet), ursodeoxycholic acid (30 μg/tablet) and pleuromulin ursodeoxycholic acid ester (30 μg/tablet).
(§4) The experimental strains were inoculated in non-selective medium and placed in air at 37° C. for 24 h. Pick a single colony that grows well and inoculate it into broth medium, incubate at 35° C.±2° C. for 6 hours, and use LA broth medium to calibrate the concentration of the bacterial solution to 0.5 Mie turbidimetric tube (1.5×10^8 CFU/mL). A bacterial suspension is obtained.
(§5) Weigh the LB dry powder, sterilize at 103.4 Kpa, 121.3° C. high-pressure steam for 15 min, and then put it in a 40° C.-50° C. water bath. Place a sterile empty plate (inner diameter 9 cm) on the surface of the ultra-clean table water table, shake and shake LB, and then pour the plate. The thickness of each plate is 3 mm to 4 mm. After the plate is cooled at room temperature, store it in the refrigerator at 2° C.-8° C. Use a sterile cotton swab to dip the bacterial solution, and evenly coat the surface of the LB plate 3 times. After inoculation of the bacterial suspension, the LB plate was dried at room temperature for 3 min to 5 min. Use sterile forceps to closely attach the antibacterial drug paper to the dish. Put the dish upside down and place it in a 37° C. incubator for 24 h. Observe the result and measure the diameter. Taking 0.5% DMSO solution as a negative control, the antibacterial activity is expressed by the diameter of the inhibition zone. The inhibition zone ≥17 mm, sensitive; the inhibition zone is 15 mm˜16 mm, intermediary; the inhibition zone ≤14 mm, drug resistance.

MRSA-575 = test: paper diffusion drug sensitivity test, MRSA-575; settings: for Zone of inhibition: MRSA-575, drug sensitive paper 30 μg/tablet, LB plate, 37° C., 24 h; for inhibitory effect (in words): multi-drug resistant Staphylococcus aureus 575, summary of FIGS. 1-3 and Table 1
Method: as §1, §2, §3, §4, §5

MRSA-596 = test: paper diffusion drug sensitivity test, MRSA-596; settings: for Zone of inhibition: MRSA-596, drug sensitive paper 30 μg/tablet, LB plate, 37° C., 24 h; for inhibitory effect (in words): multi-drug resistant Staphylococcus aureus 596, summary of FIGS. 1-3 and Table 1
Method: as §1, §2, §3, §4, §5

C=C[C@]1(C)C[C@@H](OC(=O)COC(=O)CC[C@@H](C)[C@H]2CCC3[C@@H]4[C@@H](O)C[C@@H]5C[C@H](O)CC[C@]5(C)[C@H]4CC[C@@]32C)[C@]2(C)CC[C@@H](C)[C@@]3(CCC(=O)[C@@H]23)[C@@H](C)[C@@H]1O (stereo partly drawn) [Pleuromulin ursodeoxycholic acid ester, (4R)-2-(((3aS,4R,5S,6S,8R,9R,9aR,12R)-5-hydroxy-4,6,9,12-tetramethyl-1-oxo-6-vinyldecahydro-3a,9-propanocyclopenta[8]annulen-8-yl)oxy)-2-oxoethyl 4-((3R,5 S,7 S, 8R,9 S, 10 S,13R,17R)-3,7-dihydroxy-10,13-dimethylhexadecahydro-1H-cyclopenta[a]phenanthren-17-yl)pentanoate]
Zone of inhibition (MRSA-171): 11 mm
inhibitory effect (in words) (MRSA-171): strong inhibitory effects
Zone of inhibition (MRSA-575): 13 mm
Zone of inhibition (MRSA-575; listed as pleuromutilin ursodeoxycholic acid ester): up to 13 mm
inhibitory effect (in words) (MRSA-575): strong inhibitory effects
Zone of inhibition (MRSA-596): 12 mm
inhibitory effect (in words) (MRSA-596): strong inhibitory effects

C=C[C@]1(C)C[C@@H](OC(=O)CO)[C@]2(C)[C@H](C)CC[C@]3(CCC(=O)[C@H]32)[C@@H](C)[C@@H]1O [Pleuromulin]
Zone of inhibition (MRSA-171): 0 mm
inhibitory effect (in words) (MRSA-171): no inhibitory effect
Zone of inhibition (MRSA-575): 0 mm
inhibitory effect (in words) (MRSA-575): no inhibitory effect
Zone of inhibition (MRSA-596): 0 mm
inhibitory effect (in words) (MRSA-596): no inhibitory effect

C[C@H](CCC(=O)O)[C@H]1CC[C@H]2[C@@H]3[C@@H](O)C[C@@H]4C[C@H](O)CC[C@]4(C)[C@H]3CC[C@]12C [Ursodeoxycholic acid]
Zone of inhibition (MRSA-171): 0 mm
inhibitory effect (in words) (MRSA-171): no inhibitory effect
Zone of inhibition (MRSA-575): 0 mm
inhibitory effect (in words) (MRSA-575): no inhibitory effect
Zone of inhibition (MRSA-596): 0 mm
inhibitory effect (in words) (MRSA-596): no inhibitory effect

CN[C@H](CC(C)C)C(=O)N[C@H]1C(=O)N[C@@H](CC(N)=O)C(=O)N[C@H]2C(=O)N[C@H]3C(=O)N[C@H](C(=O)N[C@H](C(=O)O)c4cc(O)cc(O)c4-c4cc3ccc4O)[C@H](O)c3ccc(c(Cl)c3)Oc3cc2cc(c3O[C@@H]2O[C@H](CO)[C@@H](O)[C@H](O)[C@H]2O[C@H]2C[C@](C)(N)[C@H](O)[C@H](C)O2)Oc2ccc(cc2Cl)[C@H]1O [Vancomycin]
Zone of inhibition (MRSA-171): 17 mm
Zone of inhibition (MRSA-575): 17 mm
Zone of inhibition (MRSA-596): 23 mm
